Read-outs that look alike come from different tables or passages of the source.
What was measured:
[1] = tested on: T1, V-H+-ATPase; conditions: ATP 0.05-1.5 mM, […] MgCl2, 100 mM KCl, MOPS-TRIS pH 7.0, 22 °C; control plants (10 mM NaCl); corrected for vesicle orientation
T1 construct: gene VHA-A
Protocol: ATP-dependent H+ transport, ACMA fluorescence quenching, Michaelis-Menten fit on V-H+-ATPase | Kinetic analysis was performed by fitting a Michaelis–Menten curve through the data points

[2] = tested on: T2, V-H+-PPase; conditions: PPi 0.005-[…], […] MgCl2, 100 mM KCl, MOPS-TRIS pH 7.0, 22 °C, corrected for vesicle orientation
T2 construct: gene VHP1
Protocol: PPi-dependent H+ transport, ACMA fluorescence quenching, Michaelis-Menten fit on V-H+-PPase | Kinetic analysis was performed by fitting a Michaelis–Menten curve through the data points

Km [1] [µM]	Km ([2]; control plants (0 mM NaCl)) [µM]	Km ([2]; control plants (10 mM NaCl)) [µM]	SMILES
250 ± 110			Nc1ncnc2c1ncn2[C@@H]1O[C@H](COP(=O)(O)OP(=O)(O)OP(=O)(O)O)[C@@H](O)[C@H]1O [ATP]
	43 ± 24	34 ± 14	O=P(O)(O)OP(=O)(O)O [pyrophosphate]
